Laboratory results reported in patent US8580794B2 (AbbVie Inc., priority 2009, dated 2013).

Target: GST-Bc1-2 (Homo sapiens, UniProt P10415)
Experiment: Time Resolved-Fluorescence Resonance Energy Transfer (TR-FRET) Bcl-2 binding assay with F-Bak peptide probe
Details: GST-Bcl-2 1 nM, F-Bak probe 100 nM, Tb-anti-GST 1 nM; '<' = below limit of detection; read-out: TR-FRET Bcl-2 Binding Ki

Chain of GST-Bc1-2 (P10415 whole entry): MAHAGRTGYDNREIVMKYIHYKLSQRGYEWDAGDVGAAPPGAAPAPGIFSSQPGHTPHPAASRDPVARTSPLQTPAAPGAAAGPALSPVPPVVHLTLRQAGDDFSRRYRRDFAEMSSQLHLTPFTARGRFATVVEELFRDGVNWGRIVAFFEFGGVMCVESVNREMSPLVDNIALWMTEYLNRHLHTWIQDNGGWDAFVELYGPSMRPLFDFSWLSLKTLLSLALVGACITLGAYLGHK

SMILES | Ki
CC1(C)CCC(CN2CCN(c3ccc(C(=O)NS(=O)(=O)c4ccc(OCC5(F)CCOCC5)c([N+](=O)[O-])c4)c(Oc4cnc5[nH]ccc5c4)c3)CC2)=C(c2ccc(Cl)cc2)C1 [Example 37, 4-(4-{[2-(4-chlorophenyl)-4,4-dimethylcyclohex-1-en-1-yl]methyl}piperazin-1-yl)-N-({4-[(4-fluorotetrahydro-2H-pyran-4-yl)methoxy]-3-nitrophenyl}sulfonyl)-2-(1H-pyrrolo[2,3-b]pyridin-5-yloxy)benzamide] | < 10 pM
CC1(C)CCC(CN2CCN(c3ccc(C(=O)NS(=O)(=O)c4ccc(OCC5CCCC(=O)C5)c([N+](=O)[O-])c4)c(Oc4cnc5[nH]ccc5c4)c3)CC2)=C(c2ccc(Cl)cc2)C1 (centres unmarked) [Example 205, 4-(4-{[2-(4-chlorophenyl)-4,4-dimethylcyclohex-1-en-1-yl]methyl}piperazin-1-yl)-N-({3-nitro-4-[(3-oxocyclohexyl)methoxy]phenyl}sulfonyl)-2-(1H-pyrrolo[2,3-b]pyridin-5-yloxy)benzamide] | < 10 pM
CC1(C)CCC(CN2CCN(c3ccc(C(=O)NS(=O)(=O)c4cnc(OCC5(F)CCN(C6COC6)CC5)c(Cl)c4)c(Oc4cnc5[nH]ccc5c4)c3)CC2)=C(c2ccc(Cl)cc2)C1 [Example 277, N-[(5-chloro-6-{[4-fluoro-1-(oxetan-3-yl)piperidin-4-yl]methoxy}pyridin-3-yl)sulfonyl]-4-(4-{[2-(4-chlorophenyl)-4,4-dimethylcyclohex-1-en-1-yl]methyl}piperazin-1-yl)-2-(1H-pyrrolo[2,3-b]pyridin-5-yloxy)benzamide] | < 10 pM
CC1(C)CCC(CN2CCN(c3ccc(C(=O)NS(=O)(=O)c4cnc(OCC5CCOCC5)c(S(C)(=O)=O)c4)c(Oc4cnc5[nH]ccc5c4)c3)CC2)=C(c2ccc(Cl)cc2)C1 [Example 219, 4-(4-{[2-(4-chlorophenyl)-4,4-dimethylcyclohex-1-en-1-yl]methyl}piperazin-1-yl)-N-{[5-(methylsulfonyl)-6-(tetrahydro-2H-pyran-4-ylmethoxy)pyridin-3-yl]sulfonyl}-2-(1H-pyrrolo[2,3-b]pyridin-5-yloxy)benzamide] | 1190 pM
CC1(C)CCC(CN2CCN(c3ccc(C(=O)NS(=O)(=O)c4cnc(OCC5CCOCC5)c(Cl)c4)c(Oc4cnc5[nH]ccc5c4)c3)CC2)=C(c2ccc(Cl)cc2)C1 [Example 40, 4-(4-{[2-(4-chlorophenyl)-4,4-dimethylcyclohex-1-en-1-yl]methyl}piperazin-1-yl)-N-{[5-chloro-6-(tetrahydro-2H-pyran-4-ylmethoxy)pyridin-3-yl]sulfonyl}-2-(1H-pyrrolo[2,3-b]pyridin-5-yloxy)benzamide] | < 10 pM
CO[C@H]1CC[C@@H](COc2ncc(S(=O)(=O)NC(=O)c3ccc(N4CCN(CC5=C(c6ccc(Cl)cc6)CC(C)(C)CC5)CC4)cc3Oc3cnc4[nH]ccc4c3)cc2Cl)CC1 [Example 211, Cis-N-({5-chloro-6-[(4-methoxycyclohexyl)methoxy]pyridin-3-yl}sulfonyl)-4-(4-{[2-(4-chlorophenyl)-4,4-dimethylcyclohex-1-en-1-yl]methyl}piperazin-1-yl)-2-(1H-pyrrolo[2,3-b]pyridin-5-yloxy)benzamide] | 58 pM
COc1cccc(CNc2ccc(S(=O)(=O)NC(=O)c3ccc(N4CCN(CC5=C(c6ccc(Cl)cc6)CC(C)(C)CC5)CC4)cc3Oc3cnc4[nH]ccc4c3)cc2[N+](=O)[O-])c1 [Example 176, 4-(4-{[2-(4-chlorophenyl)-4,4-dimethylcyclohex-1-en-1-yl]methyl}piperazin-1-yl)-N-({4-[(3-methoxybenzyl)amino]-3-nitrophenyl}sulfonyl)-2-(1H-pyrrolo[2,3-b]pyridin-5-yloxy)benzamide] | 23 pM
O=C(NS(=O)(=O)c1ccc(NC[C@H]2CC[C@H](O)CC2)c([N+](=O)[O-])c1)c1ccc(N2CCN(CC3=C(c4ccc(Cl)cc4)CCC(F)(F)C3)CC2)cc1Oc1cnc2[nH]ccc2c1 [Example 324, 4-(4-{[2-(4-chlorophenyl)-5,5-difluorocyclohex-1-en-1-yl]methyl}piperazin-1-yl)-N-[(4-{[(trans-4-hydroxycyclohexyl)methyl]amino}-3-nitrophenyl)sulfonyl]-2-(1H-pyrrolo[2,3-b]pyridin-5-yloxy)benzamide] | < 10 pM
CC1(C)CCC(CN2CCN(c3ccc(C(=O)NS(=O)(=O)c4ccc(OCC5(F)CCN(C6CCOC6)CC5)c([N+](=O)[O-])c4)c(Oc4cnc5[nH]ccc5c4)c3)CC2)=C(c2ccc(Cl)cc2)C1 (centres unmarked) [Example 193, 4-(4-{[2-(4-chlorophenyl)-4,4-dimethylcyclohex-1-en-1-yl]methyl}piperazin-1-yl)-N-({4-[(4-fluoro-1-tetrahydrofuran-3-ylpiperidin-4-yl)methoxy]-3-nitrophenyl}sulfonyl)-2-(1H-pyrrolo[2,3-b]pyridin-5-yloxy)benzamide] | < 10 pM
CC1(C)CCC(CN2CCN(c3ccc(C(=O)NS(=O)(=O)c4ccc(OCCOC5CCOC5)c([N+](=O)[O-])c4)c(Oc4cnc5[nH]ccc5c4)c3)CC2)=C(c2ccc(Cl)cc2)C1 (centres unmarked) [Example 275, 4-(4-{[2-(4-chlorophenyl)-4,4-dimethylcyclohex-1-en-1-yl]methyl}piperazin-1-yl)-N-({3-nitro-4-[2-(tetrahydrofuran-3-yloxy)ethoxy]phenyl}sulfonyl)-2-(1H-pyrrolo[2,3-b]pyridin-5-yloxy)benzamide] | < 10 pM
COCC(C)(C)CNc1ccc(S(=O)(=O)NC(=O)c2ccc(N3CCN(CC4=C(c5ccc(Cl)cc5)CC(C)(C)CC4)CC3)cc2Oc2cnc3[nH]ccc3c2)cc1[N+](=O)[O-] [Example 155, 4-(4-{[2-(4-chlorophenyl)-4,4-dimethylcyclohex-1-en-1-yl]methyl}piperazin-1-yl)-N-({4-[(3-methoxy-2,2-dimethylpropyl)amino]-3-nitrophenyl}sulfonyl)-2-(1H-pyrrolo[2,3-b]pyridin-5-yloxy)benzamide] | 59 pM
CO[C@H]1CC[C@@H](COc2ccc(S(=O)(=O)NC(=O)c3ccc(N4CCN(CC5=C(c6ccc(Cl)cc6)CC(C)(C)CC5)CC4)cc3Oc3cnc4[nH]ccc4c3)cc2[N+](=O)[O-])CC1 [Example 121, 2-(1H-pyrrolo[2,3-b]pyridin-5-yloxy)-4-(4-((2-(4-chlorophenyl)-4,4-dimethylcyclohex-1-enyl)methyl)piperazin-1-yl)-N-(4-((cis-4-methoxycyclohexyl)methoxy)-3-nitrophenylsulfonyl)benzamide] | < 10 pM
CC1(C)CCC(CN2CCN(c3ccc(C(=O)NS(=O)(=O)c4cnc(OC[C@@H]5CN(CC#N)CCO5)c(Cl)c4)c(Oc4cnc5[nH]ccc5c4)c3)CC2)=C(c2ccc(Cl)cc2)C1 [Example 244, N-[(5-chloro-6-{[(2S)-4-(cyanomethyl)morpholin-2-yl]methoxy}pyridin-3-yl)sulfonyl]-4-(4-{[2-(4-chlorophenyl)-4,4-dimethylcyclohex-1-en-1-yl]methyl}piperazin-1-yl)-2-(1H-pyrrolo[2,3-b]pyridin-5-yloxy)benzamide] | 281 pM
CCN1CCOCC1COc1ncc(S(=O)(=O)NC(=O)c2ccc(N3CCN(CC4=C(c5ccc(Cl)cc5)CC(C)(C)CC4)CC3)cc2Oc2cnc3[nH]ccc3c2)cc1Br (centres unmarked) [Example 102, N-({5-bromo-6-[(4-ethylmorpholin-3-yl)methoxy]pyridin-3-yl}sulfonyl)-4-(4-{[2-(4-chlorophenyl)-4,4-dimethylcyclohex-1-en-1-yl]methyl}piperazin-1-yl)-2-(1H-pyrrolo[2,3-b]pyridin-5-yloxy)benzamide] | 94 pM
CCN(C)C(=O)N1CCOC(CNc2ncc(S(=O)(=O)NC(=O)c3ccc(N4CCN(CC5=C(c6ccc(Cl)cc6)CC(C)(C)CC5)CC4)cc3Oc3cnc4[nH]ccc4c3)cc2Cl)C1 (centres unmarked) [Example 336, 2-{[(3-chloro-5-{[4-(4-{[2-(4-chlorophenyl)-4,4-dimethylcyclohex-1-en-1-yl]methyl}piperazin-1-yl)-2-(1H-pyrrolo[2,3-b]pyridin-5-yloxy)benzoyl]sulfamoyl}pyridin-2-yl)amino]methyl}-N-ethyl-N-methylmorpholine-4-carboxamide] | 198 pM
CC1(C)CCC(CN2CCN(c3ccc(C(=O)NS(=O)(=O)c4ccc(N[C@@H]5CCN(C(CF)CF)C5)c([N+](=O)[O-])c4)c(Oc4cnc5[nH]ccc5c4)c3)CC2)=C(c2ccc(Cl)cc2)C1 [Example 207, 4-(4-{[2-(4-chlorophenyl)-4,4-dimethylcyclohex-1-en-1-yl]methyl}piperazin-1-yl)-N-{[4-({(3R)-1-[2-fluoro-1-(fluoromethyl)ethyl]pyrrolidin-3-yl}amino)-3-nitrophenyl]sulfonyl}-2-(1H-pyrrolo[2,3-b]pyridin-5-yloxy)benzamide] | 30 pM
CC1(C)CCC(CN2CCN(c3ccc(C(=O)NS(=O)(=O)c4ccc(NC5CCN(C6CC6)CC5)c(S(=O)(=O)C(F)(F)F)c4)c(Oc4cnc5[nH]ccc5c4)c3)CC2)=C(c2ccc(Cl)cc2)C1 [Example 190, 4-(4-{[2-(4-chlorophenyl)-4,4-dimethylcyclohex-1-en-1-yl]methyl}piperazin-1-yl)-N-({4-[(1-cyclopropylpiperidin-4-yl)amino]-3-[(trifluoromethyl)sulfonyl]phenyl}sulfonyl)-2-(1H-pyrrolo[2,3-b]pyridin-5-yloxy)benzamide] | 26 pM
CC(=O)N1CCCC(CNc2ccc(S(=O)(=O)NC(=O)c3ccc(N4CCN(CC5=C(c6ccc(Cl)cc6)CC(C)(C)CC5)CC4)cc3Oc3cnc4[nH]ccc4c3)cc2[N+](=O)[O-])C1 (centres unmarked) [Example 148, N-[(4-{[(1-acetylpiperidin-3-yl)methyl]amino}-3-nitrophenyl)sulfonyl]-4-(4-{[2-(4-chlorophenyl)-4,4-dimethylcyclohex-1-en-1-yl]methyl}piperazin-1-yl)-2-(1H-pyrrolo[2,3-b]pyridin-5-yloxy)benzamide] | < 10 pM

Same assay, conditions: TR-FRET Bcl-2 Binding Ki

SMILES | Ki
CN1CCC(Nc2ccc(S(=O)(=O)NC(=O)c3ccc(N4CCN(CC5=C(c6ccc(Cl)cc6)CC(C)(C)CC5)CC4)cc3Oc3ccc4[nH]ccc4c3)cc2[N+](=O)[O-])CC1 [Example 90, 4-(4-{[2-(4-chlorophenyl)-4,4-dimethylcyclohex-1-en-1-yl]methyl}piperazin-1-yl)-2-(1H-indol-5-yloxy)-N-({4-[(1-methylpiperidin-4-yl)amino]-3-nitrophenyl}sulfonyl)benzamide] | 13 pM

Same assay, conditions: read-out: Bcl-2 FRET ki

SMILES | Ki
CN1CCC(Nc2ccc(S(=O)(=O)NC(=O)c3ccc(N4CCN(CC5=C(c6ccc(Cl)cc6)CC(C)(C)CC5)CC4)cc3Oc3ccc4[nH]ccc4c3)cc2[N+](=O)[O-])CC1 [Example 90, 4-(4-{[2-(4-chlorophenyl)-4,4-dimethylcyclohex-1-en-1-yl]methyl}piperazin-1-yl)-2-(1H-indol-5-yloxy)-N-({4-[(1-methylpiperidin-4-yl)amino]-3-nitrophenyl}sulfonyl)benzamide] | 13 pM
